Data on four molecules can be found in article PMC8955307, “Nucleobase-Derived Nitrones: Synthesis and Antioxidant and Neuroprotective Activities in an In Vitro Model of Ischemia–Reperfusion” (International Journal of Molecular Sciences, 2022).

System in the first data set: not listed separately
The data set is described as follows: ABTS radical cation decolorization assay. To be noted: tested at 100 µM. How it is done:
Approximately 10 µL of the tested compounds in DMSO (100 µM final concentration) were mixed with 200 µL of ABTS∙^+ (100 mM) and 790 µL absolute ethanol. The absorbance value was recorded 1 min after mixing at 734 nm and compared to Trolox.
Regarding `C/[N+]([O-])=C/Cn1ccc(=O)[nH]c1=O` [9a], the “ABTS+ (%)” value is 19%.

On to `Cc1c(C)c2c(c(C)c1O)CCC(C)(C(=O)O)O2` (centres unmarked) [Trolox, reference compound], for which the “ABTS+ (%)” value turned out to be 91%.

System in the next data set: not listed separately
The experiment in a line: Hydroxyl radical scavenging (competition with DMSO). To be noted: tested at 100 µM. Here is the method: The competition of the tested nitrones (100 µM) with DMSO (33 mM) in the phosphate buffer (50 mM), pH 7.4, was used. The hydroxyl radicals were generated by the Fe^3+/ascorbic acid system (EDTA 0.1 mM, Fe^3+ 167 µM, ascorbic acid 10 mM), and the samples were incubated at 37 °C/30 min. A 17% w/v solution of CCl3CO2H was used to stop the radical propagation. The percentage scavenging activity was compared to Trolox used as a reference.
On to `C/[N+]([O-])=C/Cn1ccc(=O)[nH]c1=O` [9a], for which the “OH (%) scavenging” value was “no activity and No”.

On to `Cc1c(C)c2c(c(C)c1O)CCC(C)(C(=O)O)O2` (centres unmarked) [Trolox, reference compound], for which the “OH (%) scavenging” value came to 73%.

The next data set deals with human neuroblastoma SH-SY5Y cells. The data set is described as follows: Superoxide radical production (DHE fluorescence) after OGD and 3 h OGR (IR). In kind it is cell-based. Conditions: Homo sapiens, OGD + 3 h OGR (IR), compounds 0.1 to 1000 μM, read-out: Antioxidant Activity EC50 ± SEM (superoxide production). How it is done:
A density of 2–2.5 × 10^5 SHSY5Y cells/well was used to seed in 48-well plates to quantify superioxide anion formation. Firstly, cultured cells were exposed to OGD treatment for 3–4 h or maintained in normoxic conditions (controls). Thereafter, medium was replaced with oxygenated Dulbecco’s: Ham’s F12 medium with glucose, 1% Antibiotic-Antimycotic, 1% Gentamicin and 10% FCS. Cells were incubated in the absence (controls) or presence of indicated concentrations of the compounds of study, at 37 °C for 3 h. […] For every condition, the linear regression of fluorescence data (expressed in arbitrary fluorescence units, AFU) was calculated, and the slopes (a) of the best fitting lines (y = ax) were considered as an index of superoxide production, as described previously.
In the case of `CC(=O)N[C@@H](CS)C(=O)O` [NAC, N-acetyl-L-cysteine, reference compound], the EC50 is 0.97 ± 0.16 µM.

Take `C/[N+]([O-])=C/Cn1ccc(=O)[nH]c1=O` [9a]: the EC50 stood at 0.37 ± 0.04 µM.

The data set is the same for the next values; noted with them: Homo sapiens, OGD + 3 h OGR (IR), read-out: Maximal Activity mean±SEM (antioxidant).
Turning to `CC(=O)N[C@@H](CS)C(=O)O` [NAC, N-acetyl-L-cysteine, reference compound], the Emax worked out at 126 ± 5.19%.

Turning to `C/[N+]([O-])=C/Cn1ccc(=O)[nH]c1=O` [9a], the Emax amounted to 111 ± 1.46%.

System in another data set: not listed separately
The experiment in a line: Inhibition of lipid peroxidation (ILPO), AAPH protocol with sodium linoleate. Conditions: tested at 100 µM. Here is the method: The reactants consisting of 10 µL (16 mM) sodium linoleate, 10 µL of the tested nitrones in DMSO (final concentration 100 µM), 50 µL of AAPH ([…]) as a free radical initiator, 930 µL phosphate buffer pH 7.4 (0.05 M) at 37 °C under air, were mixed and the reaction’s result (as absorbance value) was recorded at 234 nm in comparison to PBN as a reference.
On to `C/[N+]([O-])=C/Cn1ccc(=O)[nH]c1=O` [9a], for which the “ILPO (%)” value was 62%.

In the case of `Cc1c(C)c2c(c(C)c1O)CCC(C)(C(=O)O)O2` (centres unmarked) [Trolox, reference compound], the “ILPO (%)” value is 93%.

System in a further data set: not listed separately
The data set is described as follows: Reducing ability: interaction with DPPH. To be noted: tested at 100 µM.
In the case of `CC(Cc1ccc(O)c(O)c1)C(C)Cc1ccc(O)c(O)c1` (centres unmarked) [NDGA, Nordihydroguaiaretic acid, reference compound], the “DPPH (%)” value was 93%.

As for `C/[N+]([O-])=C/Cn1ccc(=O)[nH]c1=O` [9a], the “DPPH (%)” value came to 20%.

The subject of the next data set is SH-SY5Y human neuroblastoma cells. The experiment in a line: Neuroprotection: cell viability (XTT metabolic activity) after OGD (4 h) followed by OGR (24 h) (IR). In kind it is cell-based. To be noted: Homo sapiens, 24 h, OGD 4 h + OGR 24 h (IR), read-out: Maximal Activity mean±SEM (neuroprotection). How it is done: Cultures of human neuroblastoma cells from line SH-SY5Y were performed in flasks containing Dulbecco’s: Ham’s F12, 1:1 [v/v] composed of 0.5 mM sodium pyruvate, 2.5 mM GlutaMAX™; GIBCO, Life Technologies, Madrid (Spain), 3.15 mg/mL glucose, 1% Antibiotic-Antimycotic (100 ui/mL penicillin, […] streptomycin, and 0.25 mg amphotericin B), 1% Gentamicin 15 mg/mL (Sigma-Aldrich, Madrid, Spain) and 10% Fetal Calf Serum (FCS) (Gibco; Life Technologies, Madrid, Spain) as as described. For each experiment, neuroblastoma cells were digested partially with 0.25% trypsin-EDTA and seeded in plates of 96 or 48 wells with a density of 0.5–1 or 2–2.5 × 10^5 cells/well, respectively, depending on the assay. At 80% confluence of the seeded cells, medium was renewed adding 0.1–1000 µM of the compounds tested.
(§1) To induce experimental ischemia, and the sub-consequent cellular damage, the neuroblastoma cultures underwent OGD for 3–4 h, maintained in a glucose-free Dulbecco’s medium inside an anaerobic chamber in the presence of a gas mixture of 95% N2/5% CO2 and humidified at 37 °C at a constant pressure of 0.15 bar. After the OGD period (4 h), medium was substituted by oxygenated 10% FCS-containing medium, and cells were incubated in conditions of normoxia for 24 h to recovery (R24h). The compounds used in the neuroprotection studies: nitrones 9a–i, α-phenyl-N-tert-butyl nitrone (PBN) and N-acetyl-L-cysteine (NAC) (0.01 μM−1000 µM), were added at the beginning of R24h as described. Concurrently, controls in the absence of the OGD procedure were performed by maintaining these cells with Dulbecco’s medium including glucose for 3–4 h in an incubator in conditions of normoxia during the OGD period; thereafter, the medium was changed, and the cells (in the presence or absence of the different study compounds) were returned to the incubator for 24 h of recovery, as described. In addition, experiments including the same amounts of vehicle (final concentration < 1% dimethyl sulfoxide) were performed, serving as controls. The effects of nitrones 9a–g were analyzed three-five times independently using different culture batches, and each experiment was carried out in triplicate.
(§2) Cell viability measurements were carried out in human neuroblastoma cells SHSY5Y using 96-well culture plates, containing about 0.5–1 × 10^5 cells/well, after the OGD-R24h or control treatment including 0.01–1000 µM of the different testing compounds (nitrones 9a–g, PBN, and NAC), utilizing the Cell Proliferation Kit II (XTT), Sigma Aldrich, Madrid, Spain, which determines the culture’s metabolic capacity, as described in [21, 22]. XTT solution (0.3 mg/mL final concentration) was added to the seeded cells, incubated for 2 h at 37 °C with 5% CO2 and 95% air (v/v), and a spectrophotometer reader (Biotek Power-Wave XS microplate-reader (BioTek Instruments, Madrid, Spain) was used to register the absorbance at 450 nm (reference 650 nm) of the soluble formazan product generated. 100% viability was set by control normoxic cells treated with medium only, and control cells were added 0.001–1% DMSO in every assay.
As for `CC(=O)N[C@@H](CS)C(=O)O` [NAC, N-acetyl-L-cysteine, reference compound], the Emax amounted to 131 ± 4.85%.

Staying with this data set, now noted: Homo sapiens, OGD 4 h + OGR 24 h (IR), compounds 0.01 μM to 1 mM, read-out: Neuroprotection EC50 ± SEM.
Turning to `CC(=O)N[C@@H](CS)C(=O)O` [NAC, N-acetyl-L-cysteine, reference compound], the EC50 came out at 4.18 ± 0.52 µM.

The target in another data set is T1, Soybean Lipoxygenase (SLOX) (Glycine max, UniProt P08170).
T1 sequence (P08170 1-839): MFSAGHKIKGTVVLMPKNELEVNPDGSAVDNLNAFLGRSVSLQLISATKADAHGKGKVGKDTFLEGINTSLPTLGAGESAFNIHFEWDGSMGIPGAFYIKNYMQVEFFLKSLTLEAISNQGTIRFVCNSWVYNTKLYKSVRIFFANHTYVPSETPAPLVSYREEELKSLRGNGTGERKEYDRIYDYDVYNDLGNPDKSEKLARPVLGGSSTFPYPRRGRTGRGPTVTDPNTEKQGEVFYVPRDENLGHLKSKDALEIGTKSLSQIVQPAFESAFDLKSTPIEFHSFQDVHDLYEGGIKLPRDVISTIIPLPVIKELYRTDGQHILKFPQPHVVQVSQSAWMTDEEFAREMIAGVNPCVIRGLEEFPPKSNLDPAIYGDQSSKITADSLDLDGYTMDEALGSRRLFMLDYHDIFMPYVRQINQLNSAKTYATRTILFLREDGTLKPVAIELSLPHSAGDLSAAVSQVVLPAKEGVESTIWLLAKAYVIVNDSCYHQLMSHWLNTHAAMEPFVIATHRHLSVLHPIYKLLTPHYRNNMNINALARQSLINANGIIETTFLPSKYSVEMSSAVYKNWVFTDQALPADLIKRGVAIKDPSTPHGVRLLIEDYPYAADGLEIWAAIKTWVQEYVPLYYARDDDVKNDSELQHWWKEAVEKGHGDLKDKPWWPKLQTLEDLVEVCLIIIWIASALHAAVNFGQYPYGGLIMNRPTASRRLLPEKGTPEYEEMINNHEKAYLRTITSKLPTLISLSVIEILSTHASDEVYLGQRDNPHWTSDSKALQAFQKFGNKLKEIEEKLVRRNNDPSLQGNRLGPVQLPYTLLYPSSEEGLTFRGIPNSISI
The experiment in a line: In vitro inhibition of soybean lipoxygenase (UV absorbance-based enzyme assay). To be noted: soybean LOX, sodium linoleate substrate, pH 9. In kind it is biochemical. Here is the method: The experimental conditions followed our previously reported protocol. Sodium linoleate was used as a substrate (0.1 mM) with 0.2 mL of the saline solution of SLOX (1/9 × 10^−4 w/v) in the Tris buffer pH 9.
In turn, `C/[N+]([O-])=C/Cn1ccc(=O)[nH]c1=O` [9a] yielded an IC50 of 62.5 µM.

Another data set deals with SH-SY5Y human neuroblastoma cells. The data set is described as follows: Anti-necrotic effect: LDH release after OGD (4 h) and 24 h OGR (IR). In kind it is cell-based. Conditions: Homo sapiens, OGD 4 h + 24 h OGR (IR), compounds 0.1 μM to 1 mM, read-out: LDH Release Inhibition IC50 ±SEM. Here is the method:
as §1
Anti-necrotic cell activity was evaluated by culturing SHSY5Y cells in 48-well dishes, in a density of 2 × 10^5 cells/well and treating them as controls or under the OGD-R24h procedure, adding the testing compounds at 0.01–1000 µM (see point 4.2.2.). Media of every well were collected in Eppendorf tubes properly labelled and stored at −20 °C until measurement (samples would be needed to measure extracellular NADH). Afterwards, each well was recharged with a 0.1 M Phosphate Buffer with 0.5% Triton X-100, pH 7.5, in order to scratch the cells from the bottom of the well. After a 13.000 rpm centrifugation, the soluble fractions are collected and labelled (samples would be essential to measure intracellular NADH). Finally, LDH activity was quantified as the degree of absorbance declined at 340, indicating the oxidation of NADH to NAD+ as described. Results are expressed as the LDH activity of the extracellular medium referred to the total LDH activity after cell lysis.
With `CC(=O)N[C@@H](CS)C(=O)O` [NAC, N-acetyl-L-cysteine, reference compound], the IC50 is 4.64 ± 1.05 µM.

On to `C/[N+]([O-])=C/Cn1ccc(=O)[nH]c1=O` [9a], for which the IC50 amounted to 2.57 ± 0.53 µM.

The data set is the same for the next values; noted with them: Homo sapiens, OGD 4 h + 24 h OGR (IR), read-out: Maximal Inhibition Mean±SEM (LDH release).
With `CC(=O)N[C@@H](CS)C(=O)O` [NAC, N-acetyl-L-cysteine, reference compound], the Emax stood at 99.1 ± 6.59%.

With `C/[N+]([O-])=C/Cn1ccc(=O)[nH]c1=O` [9a], the Emax amounted to 100 ± 4.75%.

For another data set, the system named is human neuroblastoma SH-SY5Y cells. The data set is described as follows: Basal neurotoxicity: cell viability under basal conditions. In kind it is cell-based.
Settings: not given
Here is the method:
as §2
With `CC(=O)N[C@@H](CS)C(=O)O` [NAC, N-acetyl-L-cysteine, reference compound], the “Neurotoxic effects at basal level (cell viability)” value is given as “did not show any neurotoxic effects”.
